{"source": "patent US7538084B2", "about": "“Cyclosporins” (AMR Technology, Inc., priority 2003, dated 2009)", "key": {"[1]": {"tested_on": "murine splenocytes", "experiment": "one-way mixed lymphocyte reaction (MLR) assay, murine", "format": "cell-based, mouse", "procedure": "(§1) The MLR assay was designed to measure ^3H-thymidine uptake by human lymphocytes or murine splenocytes that are undergoing cell proliferation in an immune response to allogeneic stimulation. The murine system uses the H2 disparate inbred mouse strains: Balb/c (H2^d) and C57B1/6 (H2^b).\nInitial screens were done at a fixed value of 100 ng/ml test compound."}, "[2]": {"tested_on": "human T-lymphocytes", "conditions": "mixed lymphocyte reaction assay in human T-lymphocytes", "description": "as §1"}}}
{"substance": "Cyclosporin A Methyl Vinyl Ketone (IIIa) [Compound IIIa]", "values": [{"measurement": "IC50 (concentration inhibiting proliferation by 50% relative to control)", "setting": "[1]; 3H-thymidine uptake, Balb/c responder splenocytes, γ-irradiated C57B1/6 stimulators, 7 point concentration-response curves", "value": 0.31, "unit": "µg/mL"}, {"measurement": "immunosuppressive activity", "setting": "[1]; mixed lymphocyte reaction assay in murine splenocytes", "value": "significant immunosuppressive activity"}, {"measurement": "immunosuppressive activity", "setting": "[2]", "value": "significant immunosuppressive activity"}]}
